From patent US12358885B2, “Substituted n-propylamine fused heterocyclic mescaline derivatives” (Enveric Biosciences Canada Inc., priority 2022, dated 2025)
Like-named read-outs stand apart in the source and are kept apart here.

Experiments:
5-HT1A receptor [1] = biological target: T1, 5-HT1A receptor (Homo sapiens, UniProt P08908); assay: 5-HT1A receptor radioligand competition assay (SPA, 8-hydroxy-DPAT [3H]); type: binding; settings: 0.5 nM hot 8-hydroxy-DPAT, membranes containing 5-HT1A
T1 construct: purchased Perkin Elmer 6110501400UA
T1 sequence (P08908 1-422): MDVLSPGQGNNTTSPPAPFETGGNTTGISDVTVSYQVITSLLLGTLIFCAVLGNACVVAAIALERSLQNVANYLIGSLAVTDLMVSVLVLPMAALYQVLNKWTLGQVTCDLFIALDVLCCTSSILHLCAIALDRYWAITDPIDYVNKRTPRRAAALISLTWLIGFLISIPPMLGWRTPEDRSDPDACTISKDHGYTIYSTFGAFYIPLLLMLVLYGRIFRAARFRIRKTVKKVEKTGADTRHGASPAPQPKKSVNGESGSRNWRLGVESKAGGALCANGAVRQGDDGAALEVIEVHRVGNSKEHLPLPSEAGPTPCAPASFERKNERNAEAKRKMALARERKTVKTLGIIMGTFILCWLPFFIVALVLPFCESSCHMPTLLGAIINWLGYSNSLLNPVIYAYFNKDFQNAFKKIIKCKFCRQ

5-HT7 receptor = biological target: T2, 5-HT7 receptor (Homo sapiens, UniProt P34969); assay: Eurofins Cerep competition binding assay at 5-HT7 receptor; settings: 10 μM test ligand, [3H]LSD, recombinant receptor in HEK-293 cells; for inhibition at 10 µM: read-out: HT7, percent of control-specific binding
T2 construct: host or cells: HEK-293 cells (membrane preparation)

[2] = biological target: T3, dopamine transporter (DAT) (Homo sapiens, UniProt Q01959); assay: Eurofins Cerep competition binding assay at dopamine transporter; settings: for DAT, percent of control-specific binding: 10 μM test ligand, [3H]BTCP, recombinant transporter in CHO cells; for inhibition at 10 µM: read-out: DAT, percent of control-specific binding
T3 construct: host or cells: CHO cells (membrane preparation)

5-HT1A receptor [3] = biological target: T1, 5-HT1A receptor; assay: Functional 5-HT1A receptor cAMP assay in CHO-K1/5-HT1A/Gα15 cells; type: cell-based
5-HT1A receptor [4] = biological target: T1, 5-HT1A receptor; assay: Eurofins Cerep competition binding assay at 5-HT1A receptor; settings: 10 μM test ligand, [3H]8-OH-DPAT, recombinant receptor in HEK-293 cells; for inhibition at 10 µM: read-out: HT1A, percent of control-specific binding
MT1 receptor = biological target: T4, MT1 receptor (Homo sapiens, UniProt P48039); assay: Eurofins Cerep competition binding assay at MT1 receptor; settings: for MT1, percent of control-specific binding: 10 μM test ligand, [125I]2-iodomelatonin, recombinant receptor in CHO cells; for inhibition at 10 µM: read-out: MT1, percent of control-specific binding
T4 construct: host or cells: CHO cells (membrane preparation)

D3 receptor = biological target: T5, D3 receptor (Homo sapiens, UniProt P35462); assay: Eurofins Cerep competition binding assay at D3 receptor; settings: 10 μM test ligand, [3H]methylspiperone, recombinant receptor in CHO cells; for inhibition at 10 µM: read-out: D3, percent of control-specific binding
T5 construct: host or cells: CHO cells (membrane preparation)

5-HT2A receptor [5] = biological target: T6, 5-HT2A receptor (Homo sapiens, UniProt P28223); assay: biochemical; type: binding; settings: for inhibition at 10 µM: read-out: HT2A, percent of control-specific binding
T6 construct: host or cells: HEK-293 cells (membrane preparation)

alpha2A receptor = biological target: T7, alpha2A receptor (Homo sapiens, UniProt P08913); assay: Eurofins Cerep competition binding assay at alpha2A receptor; settings: 10 μM test ligand; [3H]RX 821002; recombinant receptor in CHO cells
T7 construct: host or cells: CHO cells (membrane preparation)
T7 sequence (P08913 1-465): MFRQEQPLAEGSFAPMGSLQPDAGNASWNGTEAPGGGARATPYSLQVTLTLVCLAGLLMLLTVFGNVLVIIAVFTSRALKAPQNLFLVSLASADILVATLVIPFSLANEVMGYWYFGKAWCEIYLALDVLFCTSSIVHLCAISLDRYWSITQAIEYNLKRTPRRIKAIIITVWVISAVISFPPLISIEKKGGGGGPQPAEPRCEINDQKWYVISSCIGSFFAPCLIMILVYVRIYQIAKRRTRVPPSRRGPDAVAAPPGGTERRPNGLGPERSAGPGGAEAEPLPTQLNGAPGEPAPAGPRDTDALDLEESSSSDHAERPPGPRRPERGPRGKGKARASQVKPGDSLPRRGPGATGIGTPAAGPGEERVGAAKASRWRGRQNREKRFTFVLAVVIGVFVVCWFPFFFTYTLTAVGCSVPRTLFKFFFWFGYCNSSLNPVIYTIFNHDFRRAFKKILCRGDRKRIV

5-HT2B receptor = biological target: T8, 5-HT2B receptor (Homo sapiens, UniProt P41595); assay: Eurofins Cerep competition binding assay at 5-HT2B receptor; settings: 10 μM test ligand, [3H]mesulergine, recombinant receptor in CHO cells; for inhibition at 10 µM: read-out: HT2B, percent of control-specific binding
T8 construct: host or cells: CHO cells (membrane preparation)

[6] = biological target: T9, norepinephrine transporter (NET) (Homo sapiens, UniProt P23975); assay: Eurofins Cerep competition binding assay at norepinephrine transporter; settings: for NET, percent of control-specific binding: 10 μM test ligand, [3H]nisoxetine, recombinant transporter in CHO cells; for inhibition at 10 µM: read-out: NET, percent of control-specific binding
T9 construct: host or cells: CHO cells (membrane preparation)

5-HT2A receptor [7] = biological target: T6, 5-HT2A receptor; assay: biochemical; type: binding; settings: 1 nM [3H]ketanserin; membranes containing 5-HT2A; SPA
[8] = biological target: T10, serotonin transporter (SERT) (Homo sapiens, UniProt P31645); assay: biochemical; type: binding; settings: for SERT, percent of control-specific binding: 10 µM; for inhibition at 10 µM: read-out: SERT, percent of control-specific binding
T10 construct: host or cells: CHO cells (membrane preparation)

5-HT2C receptor = biological target: T11, 5-HT2C receptor (Homo sapiens, UniProt P28335); assay: Eurofins Cerep competition binding assay at 5-HT2C receptor; settings: 10 μM test ligand; [125I](±)DOI; recombinant receptor in HEK-293 cells; read-out: HT2C, percent of control-specific binding
T11 construct: host or cells: HEK-293 cells (membrane preparation)
T11 sequence (P28335 33-458): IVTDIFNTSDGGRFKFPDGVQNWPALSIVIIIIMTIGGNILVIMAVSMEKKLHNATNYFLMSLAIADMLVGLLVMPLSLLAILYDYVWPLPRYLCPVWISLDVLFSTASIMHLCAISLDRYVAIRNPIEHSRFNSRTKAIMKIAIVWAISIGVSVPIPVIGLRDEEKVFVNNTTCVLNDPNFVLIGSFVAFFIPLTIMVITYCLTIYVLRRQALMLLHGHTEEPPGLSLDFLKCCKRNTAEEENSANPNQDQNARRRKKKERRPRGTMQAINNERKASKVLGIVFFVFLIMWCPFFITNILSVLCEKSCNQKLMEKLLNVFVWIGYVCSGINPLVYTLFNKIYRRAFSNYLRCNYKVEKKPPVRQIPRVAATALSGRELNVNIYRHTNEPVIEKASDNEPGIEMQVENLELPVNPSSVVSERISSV

[9] = 10 μM test molecule, [125I](±)DOI, recombinant receptor in HEK-293 cells

T10 sequence (P31645 whole entry): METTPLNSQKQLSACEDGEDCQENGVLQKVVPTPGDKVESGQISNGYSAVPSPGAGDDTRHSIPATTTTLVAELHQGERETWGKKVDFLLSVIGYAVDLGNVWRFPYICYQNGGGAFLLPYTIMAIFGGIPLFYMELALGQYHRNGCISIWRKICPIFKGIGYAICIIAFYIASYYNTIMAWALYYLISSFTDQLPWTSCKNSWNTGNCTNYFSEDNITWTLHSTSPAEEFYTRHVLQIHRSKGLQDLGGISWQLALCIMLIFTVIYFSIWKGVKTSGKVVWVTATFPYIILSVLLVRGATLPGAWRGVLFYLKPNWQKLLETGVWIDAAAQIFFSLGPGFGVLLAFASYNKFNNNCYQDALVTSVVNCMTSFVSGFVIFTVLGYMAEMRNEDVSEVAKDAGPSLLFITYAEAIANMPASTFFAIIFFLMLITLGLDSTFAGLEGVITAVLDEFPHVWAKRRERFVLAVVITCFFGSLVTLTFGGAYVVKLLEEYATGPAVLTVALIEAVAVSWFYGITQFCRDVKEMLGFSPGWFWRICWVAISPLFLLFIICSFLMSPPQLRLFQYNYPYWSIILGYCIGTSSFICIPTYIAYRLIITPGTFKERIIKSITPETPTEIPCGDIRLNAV
T2 sequence (P34969 whole entry): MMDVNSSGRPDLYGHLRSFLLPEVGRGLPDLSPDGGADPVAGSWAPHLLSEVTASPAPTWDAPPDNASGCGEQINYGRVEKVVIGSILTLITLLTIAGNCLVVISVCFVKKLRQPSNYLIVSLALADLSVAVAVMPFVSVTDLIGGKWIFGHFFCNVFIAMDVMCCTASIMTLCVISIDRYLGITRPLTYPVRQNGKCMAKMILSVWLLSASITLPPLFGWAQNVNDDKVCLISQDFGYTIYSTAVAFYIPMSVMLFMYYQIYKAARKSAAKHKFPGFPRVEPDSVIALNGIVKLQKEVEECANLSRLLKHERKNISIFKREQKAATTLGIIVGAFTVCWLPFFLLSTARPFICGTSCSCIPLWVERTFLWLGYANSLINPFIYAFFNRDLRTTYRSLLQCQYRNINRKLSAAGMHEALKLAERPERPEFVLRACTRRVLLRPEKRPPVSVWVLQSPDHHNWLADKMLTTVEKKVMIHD
T3 sequence (Q01959 whole entry): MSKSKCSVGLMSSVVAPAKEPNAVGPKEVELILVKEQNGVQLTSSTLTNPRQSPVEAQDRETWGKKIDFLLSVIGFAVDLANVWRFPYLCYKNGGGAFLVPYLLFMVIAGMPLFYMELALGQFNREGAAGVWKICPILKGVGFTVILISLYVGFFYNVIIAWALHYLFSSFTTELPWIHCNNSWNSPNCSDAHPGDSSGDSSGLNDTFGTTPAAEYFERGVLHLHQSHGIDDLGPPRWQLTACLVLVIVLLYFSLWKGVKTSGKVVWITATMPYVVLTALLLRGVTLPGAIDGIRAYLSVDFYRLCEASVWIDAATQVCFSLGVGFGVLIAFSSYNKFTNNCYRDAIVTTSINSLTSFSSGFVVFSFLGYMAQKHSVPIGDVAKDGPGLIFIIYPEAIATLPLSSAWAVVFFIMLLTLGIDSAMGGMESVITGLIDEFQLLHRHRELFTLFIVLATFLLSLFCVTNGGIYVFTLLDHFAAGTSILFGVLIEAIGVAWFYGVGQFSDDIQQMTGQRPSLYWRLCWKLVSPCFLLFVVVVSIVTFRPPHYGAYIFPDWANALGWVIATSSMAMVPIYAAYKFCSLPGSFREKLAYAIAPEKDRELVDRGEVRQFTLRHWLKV
T5 sequence (P35462 whole entry): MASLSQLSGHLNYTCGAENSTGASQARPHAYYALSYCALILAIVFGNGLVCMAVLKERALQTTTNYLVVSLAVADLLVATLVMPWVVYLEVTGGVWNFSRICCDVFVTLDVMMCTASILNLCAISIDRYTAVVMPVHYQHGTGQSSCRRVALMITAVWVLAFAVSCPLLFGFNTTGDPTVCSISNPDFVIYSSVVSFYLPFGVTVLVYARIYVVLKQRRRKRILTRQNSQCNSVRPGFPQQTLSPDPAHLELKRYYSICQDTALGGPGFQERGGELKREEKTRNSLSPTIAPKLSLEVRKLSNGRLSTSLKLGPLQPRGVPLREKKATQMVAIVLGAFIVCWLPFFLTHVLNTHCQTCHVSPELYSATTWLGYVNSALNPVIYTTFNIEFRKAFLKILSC
T9 sequence (P23975 whole entry): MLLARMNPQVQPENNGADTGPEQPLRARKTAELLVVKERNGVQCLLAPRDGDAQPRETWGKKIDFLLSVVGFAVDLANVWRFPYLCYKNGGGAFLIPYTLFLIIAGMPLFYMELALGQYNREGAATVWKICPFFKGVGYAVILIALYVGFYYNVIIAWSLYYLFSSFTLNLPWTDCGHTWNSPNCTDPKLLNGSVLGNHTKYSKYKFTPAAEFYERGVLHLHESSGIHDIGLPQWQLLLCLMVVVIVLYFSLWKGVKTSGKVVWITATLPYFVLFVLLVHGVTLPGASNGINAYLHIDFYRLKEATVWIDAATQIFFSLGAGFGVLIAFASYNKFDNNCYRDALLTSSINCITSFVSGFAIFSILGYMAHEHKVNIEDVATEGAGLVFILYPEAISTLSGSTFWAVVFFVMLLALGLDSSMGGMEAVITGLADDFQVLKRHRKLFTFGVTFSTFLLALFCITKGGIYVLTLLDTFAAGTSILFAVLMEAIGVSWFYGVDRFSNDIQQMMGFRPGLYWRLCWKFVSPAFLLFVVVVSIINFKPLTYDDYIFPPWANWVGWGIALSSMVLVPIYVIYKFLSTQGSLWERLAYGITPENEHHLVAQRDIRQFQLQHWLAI
T6 sequence (P28223 whole entry): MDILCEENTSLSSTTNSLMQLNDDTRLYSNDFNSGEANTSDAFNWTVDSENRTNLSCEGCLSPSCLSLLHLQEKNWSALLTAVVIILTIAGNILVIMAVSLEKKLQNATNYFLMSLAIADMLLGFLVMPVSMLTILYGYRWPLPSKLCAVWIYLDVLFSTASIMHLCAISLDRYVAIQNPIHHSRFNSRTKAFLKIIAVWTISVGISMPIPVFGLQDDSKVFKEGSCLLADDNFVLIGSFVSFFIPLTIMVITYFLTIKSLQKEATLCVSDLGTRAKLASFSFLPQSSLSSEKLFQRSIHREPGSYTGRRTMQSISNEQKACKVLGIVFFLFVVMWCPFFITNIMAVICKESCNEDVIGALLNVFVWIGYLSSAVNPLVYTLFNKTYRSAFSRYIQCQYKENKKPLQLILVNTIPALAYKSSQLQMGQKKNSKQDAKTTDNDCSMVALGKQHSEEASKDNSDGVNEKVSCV
T4 sequence (P48039 whole entry): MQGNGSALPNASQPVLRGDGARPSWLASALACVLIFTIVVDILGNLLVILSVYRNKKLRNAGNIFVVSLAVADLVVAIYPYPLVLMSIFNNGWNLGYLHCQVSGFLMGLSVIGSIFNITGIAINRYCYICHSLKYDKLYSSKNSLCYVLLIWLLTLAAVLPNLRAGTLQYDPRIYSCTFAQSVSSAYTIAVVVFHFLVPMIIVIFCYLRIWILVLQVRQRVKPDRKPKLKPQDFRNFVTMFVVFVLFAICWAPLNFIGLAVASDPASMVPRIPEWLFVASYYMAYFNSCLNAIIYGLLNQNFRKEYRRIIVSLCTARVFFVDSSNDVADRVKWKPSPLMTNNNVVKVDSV
T8 sequence (P41595 whole entry): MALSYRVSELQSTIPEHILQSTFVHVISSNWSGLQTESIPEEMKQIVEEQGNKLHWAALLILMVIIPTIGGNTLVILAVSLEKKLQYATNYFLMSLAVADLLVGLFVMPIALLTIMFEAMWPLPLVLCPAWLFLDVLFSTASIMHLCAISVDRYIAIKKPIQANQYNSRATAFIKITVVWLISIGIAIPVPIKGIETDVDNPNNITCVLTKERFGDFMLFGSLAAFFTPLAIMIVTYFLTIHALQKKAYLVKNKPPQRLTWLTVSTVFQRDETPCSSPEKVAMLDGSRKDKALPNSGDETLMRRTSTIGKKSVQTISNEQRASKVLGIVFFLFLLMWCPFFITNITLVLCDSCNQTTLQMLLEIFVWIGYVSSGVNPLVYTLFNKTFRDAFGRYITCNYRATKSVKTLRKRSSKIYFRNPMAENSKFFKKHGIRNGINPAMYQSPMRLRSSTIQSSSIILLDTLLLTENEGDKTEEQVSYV

CC(Cc1ccc2c(c1)OCO2)CN1CCCC1 (racemic) [A(II)]
Ki (5-HT1A receptor [1]): 8 µM

COc1cc(CCN)c(OC)cc1Br [2C-B, reference compound]
HT7, percent of control-specific binding (5-HT7 receptor): 88% | DAT, percent of control-specific binding [2]: 5% | EC50 (5-HT1A receptor [3]; reduction of cAMP in cells stimulated with 4 μM forskolin, CHO-K1/5-HT1A/Gα15, read-out: 5-HT1A, EC50): 5.95 µM | HT1A, percent of control-specific binding (5-HT1A receptor [4]): 96% | MT1, percent of control-specific binding (MT1 receptor): 86% | D3, percent of control-specific binding (D3 receptor): 43% | HT2A, percent of control-specific binding (5-HT2A receptor [5]; [9]): 98% | Ki (5-HT1A receptor [1]): 0.2 µM | α-2A, percent of control-specific binding (alpha2A receptor): 88% | HT2B, percent of control-specific binding (5-HT2B receptor): 99% | NET, percent of control-specific binding [6]: 13% | Ki (5-HT2A receptor [7]): 0.414 µM | SERT, percent of control-specific binding [8]: 42%

COc1ccc2cccc(CCNC(C)=O)c2c1 [Agomelatine]
inhibition at 10 µM (D3 receptor): 6% | inhibition at 10 µM (5-HT2A receptor [5]; [9]): 61% | α-2A, percent of control-specific binding (alpha2A receptor): 2%

CC(NC(C)(C)C)C(=O)c1cccc(Cl)c1 (stereo not shown) [Bupropion]
inhibition at 10 µM (D3 receptor): 3% | α-2A, percent of control-specific binding (alpha2A receptor): 2%

CCN(CC)CCCc1ccc2c(c1)OCO2 [C(I)]
Ki (5-HT1A receptor [1]): 2.9 µM

c1cc2c(cc1CCCN1CCCC1)OCO2 [C(III)]
inhibition at 10 µM (5-HT7 receptor): 15% | inhibition at 10 µM [2]: 27% | inhibition at 10 µM (5-HT2C receptor): 33% | inhibition at 10 µM (5-HT1A receptor [4]): 72% | inhibition at 10 µM (MT1 receptor): 3% | inhibition at 10 µM (D3 receptor): 22% | inhibition at 10 µM (5-HT2A receptor [5]; [9]): 37% | Ki (5-HT1A receptor [1]): 2.33 µM | α-2A, percent of control-specific binding (alpha2A receptor): 36% | inhibition at 10 µM (5-HT2B receptor): 47% | inhibition at 10 µM [6]: 3% | inhibition at 10 µM [8]: 19%

Brc1cc2c(cc1CCCN1CCCC1)OCO2 [C(IV)]
inhibition at 10 µM (5-HT7 receptor): 40% | inhibition at 10 µM [2]: 10% | inhibition at 10 µM (5-HT2C receptor): 65% | inhibition at 10 µM (5-HT1A receptor [4]): 92% | inhibition at 10 µM (MT1 receptor): 8% | inhibition at 10 µM (D3 receptor): 61% | inhibition at 10 µM (5-HT2A receptor [5]; [9]): 62% | Ki (5-HT1A receptor [1]): 0.596 µM | α-2A, percent of control-specific binding (alpha2A receptor): 55% | inhibition at 10 µM (5-HT2B receptor): 73% | inhibition at 10 µM [6]: 0% | inhibition at 10 µM [8]: 31%

COc1cc2c(cc1CCCN1CCCC1)OCO2 [C(V)]
EC50 (5-HT1A receptor [3]): 116 µM | Ki (5-HT1A receptor [1]): 5 µM

OCCNCCCc1cc2c(cc1Br)OCO2 [C(XIII)]
EC50 (5-HT1A receptor [3]): 22.9 µM

COc1cc(CC(C)N)c(OC)cc1Br (stereo not shown) [DOB, reference compound]
HT7, percent of control-specific binding (5-HT7 receptor): 65% | DAT, percent of control-specific binding [2]: 3% | HT1A, percent of control-specific binding (5-HT1A receptor [4]): 75% | MT1, percent of control-specific binding (MT1 receptor): −3% | D3, percent of control-specific binding (D3 receptor): 25% | HT2A, percent of control-specific binding (5-HT2A receptor [5]; [9]): 100% | α-2A, percent of control-specific binding (alpha2A receptor): 66% | HT2B, percent of control-specific binding (5-HT2B receptor): 97% | NET, percent of control-specific binding [6]: 6% | SERT, percent of control-specific binding [8]: 53%

CNCC[C@H](Oc1cccc2ccccc12)c1cccs1 [Duloxetine]
inhibition at 10 µM (D3 receptor): 66% | inhibition at 10 µM (5-HT2A receptor [5]): 95% | α-2A, percent of control-specific binding (alpha2A receptor): 54%

O=C(CCc1ccc2c(c1)OCO2)N1CCCC1 [F(III)]
inhibition at 10 µM (5-HT7 receptor): 2% | inhibition at 10 µM [2]: 0% | inhibition at 10 µM (5-HT2C receptor): 5% | inhibition at 10 µM (5-HT1A receptor [4]): 0% | inhibition at 10 µM (MT1 receptor): 12% | inhibition at 10 µM (D3 receptor): 0% | inhibition at 10 µM (5-HT2A receptor [5]; [9]): 0% | Ki (5-HT1A receptor [1]): > 1000 µM | α-2A, percent of control-specific binding (alpha2A receptor): 5% | inhibition at 10 µM (5-HT2B receptor): 13% | inhibition at 10 µM [6]: 0% | Ki (5-HT2A receptor [7]): 152 µM | inhibition at 10 µM [8]: 0%
